Data published in publication PMC6223132 (Journal of controlled release : official journal of the …, 2018).
Values after ≈ are worked out from the molar mass of the structure shown.

Key:
[1] = system: Francisella tularensis; details: cited from earlier work
[2] = system: aerosolized F. novicida U112; assay type: in vivo, C57Bl/6 mice; details: n=8
[3] = In vivo pharmacokinetics and biodistribution of drugamer-released ciprofloxacin; details: single dose 20 mg/kg intratracheal, over 2 h

For `O=C(O)c1cn(C2CC2)c2cc(N3CCNCC3)c(F)cc2c1=O` [free ciprofloxacin, ciprofloxacin], the MIC [1] is listed as 0.03 µg/mL (≈ 0.0905 µM), the survival rate [2] is listed as 0% and the “elimination from the lungs” value [3] is listed as “rapid elimination”.
